Measurements reported in paper PMC6701155, “New perspectives on the plant PARP family: Arabidopsis PARP3 is inactive, and PARP1 exhibits predominant poly (ADP-ribose) polymerase activity in response to DNA damage” (BMC Plant Biology, 2019).

Columns and labels:
AtPARP2 (TRXH-AtPARP2) = molecular target: T1, AtPARP2 (TRXH-AtPARP2) (Arabidopsis thaliana, UniProt Q11207); assay: auto-PARylation assay, immunoblot with anti-pan-ADPR reagent; format: biochemical; details: 1 mM NAD+, 500 nM broken DNA, 25 °C, pH 7.5, Mg2+
T1 construct: gene PARP2; an MBP/MBD fusion was also tested

AtPARP1 (TRXH-AtPARP1) = molecular target: T2, AtPARP1 (TRXH-AtPARP1) (Arabidopsis thaliana, UniProt Q9ZP54); assay: as above; format: biochemical; details: 20 mM 3-AB, 1 mM NAD+, 500 nM broken DNA, 25 °C, pH 7.5, Mg2+
T2 construct: gene PARP1; full-length coding region in pET32a(+), N-terminal thioredoxin-His (TRXH) tag kept, E. coli Origami (DE3), nickel-purified
T2 sequence (Q9ZP54 1-983): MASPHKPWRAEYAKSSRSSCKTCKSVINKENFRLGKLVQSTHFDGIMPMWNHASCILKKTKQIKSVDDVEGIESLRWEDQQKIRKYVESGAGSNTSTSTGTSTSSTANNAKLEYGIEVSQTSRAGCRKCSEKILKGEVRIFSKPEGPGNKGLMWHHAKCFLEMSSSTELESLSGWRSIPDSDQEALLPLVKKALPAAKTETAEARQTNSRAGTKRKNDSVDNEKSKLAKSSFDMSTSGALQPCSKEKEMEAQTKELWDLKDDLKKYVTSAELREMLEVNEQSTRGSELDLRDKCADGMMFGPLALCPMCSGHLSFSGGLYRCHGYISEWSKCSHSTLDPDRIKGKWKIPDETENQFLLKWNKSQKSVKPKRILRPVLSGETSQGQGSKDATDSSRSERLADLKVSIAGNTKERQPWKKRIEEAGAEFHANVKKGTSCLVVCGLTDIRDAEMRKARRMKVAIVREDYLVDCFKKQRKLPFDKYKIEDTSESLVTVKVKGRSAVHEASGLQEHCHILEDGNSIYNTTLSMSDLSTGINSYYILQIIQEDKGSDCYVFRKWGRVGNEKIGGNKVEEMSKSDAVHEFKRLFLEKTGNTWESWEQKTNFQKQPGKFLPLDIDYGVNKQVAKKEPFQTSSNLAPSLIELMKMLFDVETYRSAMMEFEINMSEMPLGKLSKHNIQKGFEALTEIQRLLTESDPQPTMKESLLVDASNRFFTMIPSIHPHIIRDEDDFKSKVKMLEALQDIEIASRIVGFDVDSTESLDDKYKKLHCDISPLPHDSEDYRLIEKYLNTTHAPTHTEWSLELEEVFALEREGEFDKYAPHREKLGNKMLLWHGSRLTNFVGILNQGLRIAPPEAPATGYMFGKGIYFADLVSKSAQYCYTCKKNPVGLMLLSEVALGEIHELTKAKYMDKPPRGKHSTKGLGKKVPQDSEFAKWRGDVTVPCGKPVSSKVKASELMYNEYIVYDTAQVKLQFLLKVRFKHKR

T1 sequence (Q11207 whole entry, the tested form may be a part): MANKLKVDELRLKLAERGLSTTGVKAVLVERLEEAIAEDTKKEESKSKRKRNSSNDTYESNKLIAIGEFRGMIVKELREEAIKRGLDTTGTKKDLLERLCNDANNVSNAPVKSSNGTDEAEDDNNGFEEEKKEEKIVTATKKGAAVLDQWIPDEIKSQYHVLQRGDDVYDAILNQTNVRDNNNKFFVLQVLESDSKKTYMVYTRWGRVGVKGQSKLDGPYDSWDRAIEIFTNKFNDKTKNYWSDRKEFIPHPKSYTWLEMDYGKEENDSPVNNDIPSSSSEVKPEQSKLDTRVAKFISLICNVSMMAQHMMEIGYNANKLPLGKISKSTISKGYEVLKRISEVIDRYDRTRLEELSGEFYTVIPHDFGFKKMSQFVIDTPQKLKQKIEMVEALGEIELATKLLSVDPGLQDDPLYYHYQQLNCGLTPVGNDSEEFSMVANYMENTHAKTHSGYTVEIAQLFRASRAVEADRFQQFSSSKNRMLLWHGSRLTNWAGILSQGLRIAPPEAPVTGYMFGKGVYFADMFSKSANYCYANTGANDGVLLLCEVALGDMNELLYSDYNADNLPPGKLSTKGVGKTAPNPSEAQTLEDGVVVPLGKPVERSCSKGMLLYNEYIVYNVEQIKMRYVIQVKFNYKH

Compound: NC(=O)c1ccc[n+]([C@@H]2O[C@H](COP(=O)(O)OP(=O)(O)OC[C@H]3O[C@@H](n4cnc5c(N)ncnc54)[C@H](O)[C@@H]3O)[C@@H](O)[C@H]2O)c1 [NAD^+]
- auto-PARylation assay, immunoblot with anti-pan-ADPR reagent (AtPARP2 (TRXH-AtPARP2)): AtPARP2 produced shorter PAR chains than AtPARP1 within the same incubation time periods

Compound: NC(=O)c1cccc(N)c1 [3-AB]
- auto-PARylation assay, immunoblot with anti-pan-ADPR reagent (AtPARP1 (TRXH-AtPARP1)): The signal was abolished by the PARP inhibitor 3-AB
